Measured values as given in US20130273567A1, “Screening Method for Candidate Agonist Compounds for Adiponectin Receptor I” (priority 2010, published 2013).

Assays:
muscle-R1KO mice [1] = experiment: Treatment of muscle-R1KO mice with AICAR, resveratrol or MnTBAP; assay type: in vivo; conditions: for citrate synthase activities in muscle / insulin resistance / mitochondrial content in muscle: AICAR 500, resveratrol 400, MnTBAP 10 mg per kg body weight per day
Experimental: Oral glucose tolerance test (OGTT) and insulin tolerance test (ITT) were conducted by the method described in the following documents (Nature Med. 8, 1288-1295 (2002); Nature Med. 7, 941-946 (2001)), with some modifications. The areas of the glucose and insulin curves were calculated, respectively, by multiplying the cumulative mean height of the glucose values (1 mg/ml=1 cm) and insulin values (1 ng/ml=1 cm) by time (60 min=1 cm) (Nature Med. 13, 332-339 (2007); Nature Med. 7, 941-946 (2001)). The insulin resistance index was calculated from the product of the areas of glucose and insulin×10^−2 in the glucose tolerance test. The results were expressed as the percentage of the value of control littermates.

AMPK = AMPK phosphorylation in C2C12 myocytes (immunoblotting); assay type: cell-based, mouse; conditions: for effect on adiponectin-induced increase in AMPK phosphorylation: C2C12 myocytes preincubated with 5 mM EGTA 20 min, 50 μM BAPTA-AM 30 min or 10 μM U73122 30 min, then adiponectin 30 μg/ml 5 min
Experimental: (§1) The mouse C2C12 myoblasts were grown in 90% Dulbecco's modified high glucose Eagle's medium containing 10% (v/v) fetal bovine serum. When the cells reached 80% confluent, the myoblasts were induced to differentiate into myocytes by replacing the medium with a low serum differentiation medium (98% Dulbecco's modified high glucose Eagle's medium, 2.5% (v/v) horse serum). The medium was changed daily. The C2C12 cells were transfected by using Pofectamine 2000 (Invitrogen) and following the manufacturer's instructions.

C2C12 myocytes = experiment: Mitochondrial content assay in C2C12 myocytes (mtDNA copy number, MitoTracker Green); assay type: cell-based, mouse; conditions: C2C12 myocytes preincubated with AraA 0.5 mM 1 hr or STO-609 1 μg/ml 6 hr, then adiponectin 48 hr
Experimental: Mice used were from 8 to 10 week old at the time of the experiment. […] Induction of myogenic differentiation using C2C12 cells was carried out according to the method described in the following document (Nature Med. 8, 1288-1295 (2002)). By day 5, the cells had differentiated into multinucleated contracting myocytes. C2C12 myocytes were used after myogenic differentiation in all experiments.
as §1
(§2) Mitochondrial content assays were carried out as described in the following document (Cell Metab. 4, 75-87 (2006)), with slight modifications. Quantification of the mitochondrial content was conducted by using mtDNA and MitoTracker Green probe (Molecular Probes) according to the method as described in the following document (Obes. Res. 13, 574-581 (2005)). MitoTracker Green probe preferentially accumulates in mitochondria regardless of the mitochondrial membrane potential and provides an accurate assessment of mitochondrial mass. Cells were washed with PBS and after addition of 100 nM MitoTracker Green FM (Molecular Probes), incubated at 37° C. for 30 min. Cells were harvested by using trypsin/EDTA and resuspended in PBS. Fluorescence intensity was detected with excitation and emission wavelengths of 490 and 516 nm, respectively, and the values thus measured were corrected for total protein (mg/ml).

PGC-1α = PGC-1α (Ppargc1a mRNA) expression in C2C12 myocytes; assay type: cell-based, mouse; conditions: C2C12 myocytes preincubated with AraA 0.5 mM 1 hr, STO-609 1 μg/ml 6 hr or EGTA 5 mM 20 min, then adiponectin 10 μg/ml 1.5 hr
Experimental: Real-time PCR was carried out according to the method described in the following documents (Nature Med. 13, 332-339 2007); Nature 423, 762-769 (2003); J. Biol. Chem. 281, 8748-8755 (2006)). Total RNA was prepared from cells or tissues by using Trizol (Invitrogen) according to the manufacturer's instructions. Quantification of mRNA was conducted using a real-time PCR method (Nature 423, 762-769 (2003)) with slight modifications. The procedures used for immunoblotting are described in the following documents (Nature Med. 7, 941-946 (2001); J. Biol. Chem. 281, 26602-26614 (2006); J. Biol. Chem. 281, 8748-8755 (2006)). The livers or muscles were freeze-clamped in liquid nitrogen in situ (Nature Med. 7, 941-946 (2001); J. Biol. Chem. 281, 26602-26614 (2006); J. Biol. Chem. 281, 8748-8755 (2006)). The mouse C2C12 myoblasts were grown in 90% Dulbecco's modified high glucose Eagle's medium containing 10% (v/v) fetal bovine serum. When the cells reached 80% confluent, the myoblasts were induced to differentiate into myocytes by replacing the medium with a low serum differentiation medium (98% Dulbecco's modified high glucose Eagle's medium, 2.5% (v/v) horse serum). The medium was changed daily. The C2C12 cells were transfected by using Pofectamine 2000 (Invitrogen) and following the manufacturer's instructions.

CaMKI, HDAC5 = experiment: Phosphorylation of CaMKI and HDAC5 in C2C12 myocytes (immunoblotting); assay type: cell-based, mouse; conditions: 5 mM EGTA
Experimental: as §1

AdipoR1 = molecular target: T1, AdipoR1 (Mus musculus, UniProt Q91VH1); experiment: Calcium imaging in C2C12 myocytes (fura-2); assay type: cell-based; design: endogenous in cells; host or cells: mouse C2C12 myocytes (differentiated from myoblasts)
T1 sequence (Q91VH1 1-375): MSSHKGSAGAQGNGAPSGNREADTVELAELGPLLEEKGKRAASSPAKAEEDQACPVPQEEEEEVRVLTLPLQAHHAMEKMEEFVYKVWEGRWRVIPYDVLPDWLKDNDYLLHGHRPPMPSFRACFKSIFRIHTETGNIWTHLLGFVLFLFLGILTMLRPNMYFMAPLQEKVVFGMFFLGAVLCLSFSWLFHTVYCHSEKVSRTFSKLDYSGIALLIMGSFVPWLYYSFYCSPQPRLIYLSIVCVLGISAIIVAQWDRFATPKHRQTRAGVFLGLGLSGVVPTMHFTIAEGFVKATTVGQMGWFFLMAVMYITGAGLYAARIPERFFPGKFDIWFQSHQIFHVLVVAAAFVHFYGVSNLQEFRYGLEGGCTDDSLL
Experimental: C212 myocytes cultured on glass base dishes (IWAKI) were treated with 2.5 μM fura-2/AM for 30 min. Fluorescence was measured with an Aquacosmos Calcium Imaging system (Hamamatsu Photonics). Ligands were delivered through the superfusing Ringer's solution (140 mM NaCl, 5.6 mM KCl, 5 mM HEPES, 2.0 mM sodium pyruvate, 1.25 mM KH2PO4, 2.0 mM CaCl2, 2.0 mM MgCl2, 9.4 mM D-glucose (pH 7.4)). For the calcium chelating experiment, EGTA solution (140 mM NaCl, 5.6 mM KCl, 5 mM HEPES, 2.0 mM sodium pyruvate, 1.25 mM KH2PO4, 2.0 mM MgCl2, 5.0 mM EGTA-2Na, 9.4 mM D-glucose (pH 7.4) was used for the bath solution. Fura-2 fluorescence ratios were calibrated to calcium ion signals.

mAdipoR1 = molecular target: T2, mAdipoR1 (Mus musculus, UniProt Q91VH1); experiment: Xenopus oocytes injected with AdipoR1 cRNA, two-electrode voltage clamp recording; assay type: cell-based; conditions: Xenopus oocytes expressing AdipoR1, 5 mM EGTA
T2 construct: expressed in transfected cells; host or cells: Xenopus oocytes (stage V to VII) injected with cRNA
T2 sequence (Q91VH1 1-375): T1 sequence (Q91VH1 1-375)
Experimental: Stage V to VII oocytes were treated with 2 mg/ml of collagenase S-1 (Nitta gelatin) in calcium ion-free saline solution (82.5 mM NaCl, 2 mM KCl, 1 mM MgCl2, and 5 mM HEPES, pH 7.5) for 1 to 2 hr at room temperature. The resulting oocytes were then microinjected with 50 ng of cRNA for mAdipoR1. The cRNA was synthesized from linearized modified pSPUTK. The injected oocytes were incubated for 3 days at 18° C. in a bath solution (88 mM NaCl, 1 mM KCl, 0.3 mM Ca(NO3)2, 0.4 mM CaCl2, 0.8 mM MgSO4, 2.4 mM NaHCO3, 15 mM HEPES, pH 7.6) supplemented with 10 μg/ml of penicillin and streptomycin.
Whole cell currents were recorded with a two-electrode voltage clamp technique. Intracellular glass electrodes were filled with 3M KCl. Signals were amplified with an OC-725C amplifier (Warner Instruments), low-pass filtered at 50 Hz, and digitized at 1 kHz. A control bath solution contained 115 mM NaCl, 2.5 mM KCl, 1.8 mM CaCl2, and 10 mM HEPES. It was titrated to pH 7.2 with NaOH. A calcium ion free solution containing 1.8 mM BaCl2 instead of CaCl2 was used. The inward current was monitored at a holding potential of −80 mV. Calcium ion activated Cl^− current was monitored by applying 500-mscc depolarizing pulses of +100 mV and +50 mV from the holding potential of −80 mV. Adiponectin was supplied to the superfusing bath solution via a silicon tube connected to computer-driven solenoid valves. Data acquisition and analysis were carried out using Digidata 1322A and pCLAMP software.

muscle-R1KO mice [2] = experiment: Increased calcium influx experiment (Bay-K 8644 gelatin hydrogel) in muscle-R1KO mice; assay type: in vivo; conditions: 0.25 μM Bay-K 8644
Experimental: as §2
Citrate synthase activity was determined from the homogeneates by using a spectrophotometer according to the method described in the following documents (Cell Metab. 4, 75-87 (2006); Eur. J. Biochem. 10, 198-206 (1969); Obes Res 13, 574-581 (2005)). The citrate synthase activity was measured at 37° C. in 0.1M Tris-HCl (pH 8.3) assay buffer containing 0.12 mM 5,5′-dithio-bis(2-nitrobenzoic acid) and 0.6 mM oxaloacetate. After recording of absorbance at 412 nm in the first two minutes, the reaction was started with the addition of 3 mM acetyl-CoA and a change in absorbance was measured every 10 sec for 7 min.
Hydrogels were prepared by crosslinking aqueous gelatin solutions with glutaraldehyde according to the method described in the following document (J. Control Release 64, 133-142 (2000)). For incorporating Bay-K 8644 into the resulting gelatin hydrogels, 20 μl of Bay-K 8644 (0.25 μM) was added dropwise onto 20 mg of freeze-dried hydrogel and left it overnight at 4° C. Under anesthesia, the gelatin hydrogel having Bay-K 8644 incorporated therein was implanted under the skin. Then, the skin was carefully sutured with No. 4-0 nylon monofilament.

## Oc1ccc(C=Cc2cc(O)cc(O)c2)cc1 [resveratrol]
muscle-R1KO mice [1]; muscle-R1KO mice, 2 weeks
  citrate synthase activities in muscle: increased
  insulin resistance: significantly ameliorated
  mitochondrial content in muscle: increased

## NC(=O)c1ncn([C@@H]2O[C@H](CO)[C@@H](O)[C@H]2O)c1N [AICAR, 5-aminoimidazole-4-carboxamide-1-β-D-libocide]
muscle-R1KO mice [1]; muscle-R1KO mice, 2 weeks
  citrate synthase activities in muscle: increased
  insulin resistance: significantly ameliorated
  mitochondrial content in muscle: increased
muscle-R1KO mice [1]; muscle-R1KO mice, AICAR 500 mg per kg body weight per day, 2 weeks
  rescue of the AdipoR1 loss in muscle: significantly but partially rescued
muscle-R1KO mice [1]; muscle-R1KO mice, AICAR 500 mg per kg body weight per day, 2 hours
  phosphorylation of AMPK in muscle: significantly increased

## CC(=O)OCOC(=O)CN(CC(=O)OCOC(C)=O)c1ccccc1OCCOc1ccccc1N(CC(=O)OCOC(C)=O)CC(=O)OCOC(C)=O [BAPTA-AM, Bis-(o-aminophenoxy)ethane-N,N,N9,N9-tetra-acetic acid, tetraacetoxymethyl ester]
AMPK
  effect on adiponectin-induced increase in AMPK phosphorylation: partially suppressed

## O=C(O)c1ccc2c3c1cccc3c(=O)n1c3ccccc3nc21 [STO-609]
C2C12 myocytes
  effect on adiponectin-induced increase in mitochondrial biogenesis: almost completely abolished
PGC-1α
  effect on PGC-1α expression induced by adiponectin: effectively and almost completely abolished

## O=C(O)CN(CCOCCOCCN(CC(=O)O)CC(=O)O)CC(=O)O [EGTA]
CaMKI, HDAC5
  effect on increased CaMKI phosphorylation stimulated with adiponectin: almost completely abolished
AMPK
  effect on adiponectin-induced increase in AMPK phosphorylation: partially suppressed
AMPK; C2C12 myocytes, 5 mM EGTA, AICAR 1 mM 1 hr
  effect on phosphorylation of AMPK induced by AICAR: had no effect
AMPK; C2C12 myocytes, 5 mM EGTA, ionomycin 1 μM
  effect on ionomycin-dependent phosphorylation of AMPK: almost completely abolished
PGC-1α
  effect on PGC-1α expression induced by adiponectin: effectively and almost completely abolished
AdipoR1; 5 mM EGTA (removal of extracellular free calcium ions)
  effect on adiponectin-induced calcium ion response: almost completely abolished
AdipoR1; EGTA
  effect on ATP-induced intracellular calcium ion release: had no effect
mAdipoR1
  effect on adiponectin-induced inward current responses: almost completely abolishes
  effect on calcium-ion activated Cl- current responses to adiponectin: almost completely abolished

## Nc1ncnc2c1ncn2[C@@H]1O[C@H](CO)[C@@H](O)[C@@H]1O [AraA]
C2C12 myocytes
  effect on adiponectin-induced increase in mitochondrial biogenesis: almost completely abolished
PGC-1α
  effect on PGC-1α expression induced by adiponectin: only tended to decrease

## O=C(O)c1ccc(/C2=C3\C=CC(=N3)/C(c3ccc(C(=O)O)cc3)=c3/cc/c4[n]3[Mn]([Cl])[n]3c2ccc3/C(c2ccc(C(=O)O)cc2)=C2/C=CC(=N2)\C=4c2ccc(C(=O)O)cc2)cc1 [MnTBAP]
muscle-R1KO mice [1]; MnTBAP 10 mg per kg body weight per day, 2 weeks
  ROS such as H2O2 in skeletal muscle: significantly decreased
muscle-R1KO mice [1]; muscle-R1KO mice, 2 weeks
  citrate synthase activities in muscle: failed to significantly increase
  insulin resistance: tended to ameliorate
  mitochondrial content in muscle: failed to significantly increase

## COC(=O)C1=C(C)NC(C)=C([N+](=O)[O-])C1c1ccccc1C(F)(F)F (stereo not shown) [Bay-K 8644]
muscle-R1KO mice [2]
  CaMKKβ activity (phosphorylation of CaMKI) in skeletal muscle: increase
  citrate synthase activities in muscle: significantly enhanced
  insulin-stimulated phosphorylation of Akt in muscle: significantly enhanced
  mitochondrial content in muscle: significantly enhanced

## COc1ccc2c(c1)CC[C@@H]1[C@@H]2CC[C@]2(C)[C@@H](NCCCCCCN3C(=O)C=CC3=O)CC[C@@H]12 [U73122]
AMPK
  effect on adiponectin-induced increase in AMPK phosphorylation: had little effect
